Measurements reported in patent US7335814B2, “Transgenic cells expressing glucosyltransferase nucleic acids” (The University of York, priority 2000, dated 2008).

How the values were obtained:
Format in all cases: biochemical
[1] = molecular target: T1, recombinant GTase A320 (Arabidopsis thaliana, UniProt Q9LVF0); assay: Specific activity of recombinant GTase producing glucose ester against lignin precursors (HPLC); conditions: 5 mM UDPG, 0.2 μg GTase, 200 μl, 20° C., 30 min
T1 construct: made in house; host or cells: E. coli
T1 sequence (Q9LVF0 1-496): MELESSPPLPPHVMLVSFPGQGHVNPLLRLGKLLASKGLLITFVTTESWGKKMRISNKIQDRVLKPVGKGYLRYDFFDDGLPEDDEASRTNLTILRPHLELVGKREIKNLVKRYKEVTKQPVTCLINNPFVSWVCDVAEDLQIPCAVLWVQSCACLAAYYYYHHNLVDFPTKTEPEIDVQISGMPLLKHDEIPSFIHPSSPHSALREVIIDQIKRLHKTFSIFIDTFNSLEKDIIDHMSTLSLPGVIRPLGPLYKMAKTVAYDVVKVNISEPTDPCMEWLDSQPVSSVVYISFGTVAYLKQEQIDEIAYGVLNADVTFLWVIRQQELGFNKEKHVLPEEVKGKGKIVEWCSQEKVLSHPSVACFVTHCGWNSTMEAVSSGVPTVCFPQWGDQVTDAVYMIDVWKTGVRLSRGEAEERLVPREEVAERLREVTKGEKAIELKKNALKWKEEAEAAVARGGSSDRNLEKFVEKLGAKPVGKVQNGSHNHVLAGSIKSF

[2] = molecular target: T2, recombinant GTase A407 (Arabidopsis thaliana, UniProt O81498); assay: Specific activity of recombinant GTase producing O-glucosides against lignin precursors (HPLC); conditions: 30° C.; ND = not detected
T2 construct: made in house; host or cells: E. coli
T2 sequence (O81498 1-481): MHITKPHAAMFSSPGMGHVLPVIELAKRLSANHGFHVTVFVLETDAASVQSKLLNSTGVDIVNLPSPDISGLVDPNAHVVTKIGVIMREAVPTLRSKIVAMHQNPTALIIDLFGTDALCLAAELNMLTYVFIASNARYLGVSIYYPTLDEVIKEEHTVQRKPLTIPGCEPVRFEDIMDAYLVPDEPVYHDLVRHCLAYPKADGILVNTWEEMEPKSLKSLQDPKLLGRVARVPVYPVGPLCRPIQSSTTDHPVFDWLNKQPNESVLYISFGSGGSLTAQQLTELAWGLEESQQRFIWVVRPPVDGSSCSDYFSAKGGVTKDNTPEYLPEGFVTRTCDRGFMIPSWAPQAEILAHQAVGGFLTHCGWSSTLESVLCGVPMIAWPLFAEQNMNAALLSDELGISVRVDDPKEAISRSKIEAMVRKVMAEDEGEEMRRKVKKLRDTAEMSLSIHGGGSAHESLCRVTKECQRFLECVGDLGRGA

[3] = molecular target: T3, recombinant GTase A42 (Arabidopsis thaliana, UniProt O23401); assay: Specific activity of recombinant GTase producing glucose ester against lignin precursors (HPLC); conditions: 0.5 ml of potential substrates, 5 mM UDPG, 0.2 μg GTase, 200 μl, 20° C., 30 min
T3 construct: made in house; host or cells: E. coli
T3 sequence (O23401 1-479): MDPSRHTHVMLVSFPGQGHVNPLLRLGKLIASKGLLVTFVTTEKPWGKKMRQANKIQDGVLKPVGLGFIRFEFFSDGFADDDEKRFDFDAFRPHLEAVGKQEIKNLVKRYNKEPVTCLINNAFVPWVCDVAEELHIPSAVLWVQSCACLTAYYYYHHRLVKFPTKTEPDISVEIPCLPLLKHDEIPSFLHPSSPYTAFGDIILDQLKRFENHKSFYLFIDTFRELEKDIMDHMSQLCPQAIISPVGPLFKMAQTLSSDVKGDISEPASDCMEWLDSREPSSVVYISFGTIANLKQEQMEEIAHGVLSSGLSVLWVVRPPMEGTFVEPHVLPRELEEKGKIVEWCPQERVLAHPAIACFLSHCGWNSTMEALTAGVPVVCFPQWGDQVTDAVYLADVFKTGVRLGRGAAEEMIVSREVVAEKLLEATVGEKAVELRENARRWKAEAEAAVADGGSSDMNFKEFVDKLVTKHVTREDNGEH

[4] = molecular target: T4, recombinant GTase A233 (Arabidopsis thaliana, UniProt Q8W491); assay: Specific activity of recombinant GTase producing O-glucosides against lignin precursors (HPLC); conditions: 30° C.; ND = not detected
T4 construct: made in house; host or cells: E. coli

[5] = molecular target: T5, recombinant GTase A911 (Arabidopsis thaliana, UniProt O22182); assay: Specific activity of recombinant GTase producing glucose ester against lignin precursors (HPLC); parameters: made in house; host or cells: E. coli; conditions: 0.5 ml of potential substrates, 5 mM UDPG, 0.2 μg GTase, 200 μl, 20° C., 30 min
T5 sequence (O22182 1-456): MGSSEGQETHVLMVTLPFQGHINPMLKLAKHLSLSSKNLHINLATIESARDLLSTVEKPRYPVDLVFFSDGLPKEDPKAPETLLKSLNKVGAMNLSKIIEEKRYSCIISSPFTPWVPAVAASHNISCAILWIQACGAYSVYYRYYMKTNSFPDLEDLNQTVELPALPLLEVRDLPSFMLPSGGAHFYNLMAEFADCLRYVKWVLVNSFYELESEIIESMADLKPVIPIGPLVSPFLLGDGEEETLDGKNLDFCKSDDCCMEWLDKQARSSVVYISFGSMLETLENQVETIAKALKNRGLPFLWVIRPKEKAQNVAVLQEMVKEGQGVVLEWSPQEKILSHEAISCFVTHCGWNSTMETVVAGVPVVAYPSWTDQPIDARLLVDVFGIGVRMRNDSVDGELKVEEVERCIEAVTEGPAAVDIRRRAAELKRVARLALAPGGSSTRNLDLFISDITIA

[6] = molecular target: T6, recombinant GTase A41 (Arabidopsis thaliana, UniProt Q5XF20); assay: as above; conditions: 5 mM UDPG, 0.2 μg GTase, 200 μl, 20° C., 30 min
T6 construct: made in house; host or cells: E. coli
T6 sequence (Q5XF20 7-490): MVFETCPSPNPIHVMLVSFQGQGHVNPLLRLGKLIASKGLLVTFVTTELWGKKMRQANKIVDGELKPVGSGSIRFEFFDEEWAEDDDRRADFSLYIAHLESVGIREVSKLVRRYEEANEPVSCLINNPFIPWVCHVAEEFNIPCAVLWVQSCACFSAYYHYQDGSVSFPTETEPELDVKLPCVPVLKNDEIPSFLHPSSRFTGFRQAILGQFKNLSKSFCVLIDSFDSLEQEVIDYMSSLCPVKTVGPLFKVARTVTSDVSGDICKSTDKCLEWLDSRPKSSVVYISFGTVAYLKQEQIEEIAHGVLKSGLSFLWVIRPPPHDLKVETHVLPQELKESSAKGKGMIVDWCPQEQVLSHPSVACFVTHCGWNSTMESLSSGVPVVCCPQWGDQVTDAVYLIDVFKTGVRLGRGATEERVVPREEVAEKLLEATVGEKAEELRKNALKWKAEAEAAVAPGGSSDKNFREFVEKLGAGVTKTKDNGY

## O=C(O)/C=C/c1ccc(O)cc1 [p-coumaric acid]
[1]
  Specific activity of A320 (substrate converted to glucose ester): 0.05 nkat/mg
[2]
  Specific activity of A407 (substrate converted to 4-O-glucoside): 0.01 nkat/mg
[3]
  Specific activity of A42 (substrate converted to glucose ester): 4.69 nkat/mg
[4]
  Specific activity of A233 (substrate converted to 4-O-glucoside): 0.09 nkat/mg
[5]
  Specific activity of A911 (substrate converted to glucose ester): 4.31 nkat/mg
[6]
  Specific activity of A41 (substrate converted to glucose ester): 13.53 nkat/mg

## COc1cc(/C=C/C(=O)O)ccc1O [Ferulic acid, ferulic acid]
[1]
  Specific activity of A320 (substrate converted to glucose ester): 0.54 nkat/mg
[2]
  Specific activity of A407 (substrate converted to 4-O-glucoside): 0.25 nkat/mg
[3]
  Specific activity of A42 (substrate converted to glucose ester): 15.63 nkat/mg
[4]
  Specific activity of A233 (substrate converted to 4-O-glucoside): 0.37 nkat/mg
[5]
  Specific activity of A911 (substrate converted to glucose ester): 2.88 nkat/mg
[6]
  Specific activity of A41 (substrate converted to glucose ester): 6.64 nkat/mg
